The subject of data set [1] is urinary incontinence. The data set can be described thus: Treatment of a group of cats and dogs presenting urinary incontinence. It counts as in vivo. To be noted: admixture of 5 mg/day imipramine hydrochloride and 100 mg stool softener (or by weight), oral, after several days; group of twenty cats and dogs. From the text: A group of twenty mammals, including female and male cats and dogs, present with urinary incontinence.

The nature of data set [2]: Side effects reported by treated patients.
Procedure: The patient is treated with a total daily dose of medicine, which includes an admixture of 25 mg of imipramine hydrochloride and 275 mg of stool softener (docusate sodium). […] A selective beta-blocker is administered in response to tachycardia on an as-needed basis.
For data set [3], the system named is urinary incontinence and/or urinary urgency. The data set can be described thus: Treatment of patients presenting urinary incontinence and/or urinary urgency (case examples).
Procedure: The patient stops taking the daily dosages.
The complaints include urinary incontinence and/or urinary urgency (awake and sleeping).
The patient is treated with a total daily dose of medicine, which includes 50 mg of tricyclic antidepressant (imipramine hydrochloride) and 300 mg of stool softener (docusate sodium).
The complaints include chronic urinary incontinence and/or urinary urgency.
The patient is treated with a total daily dose of medicine, which includes 50 mg of imipramine hydrochloride and 350 mg of stool softener (docusate sodium), ingested separately.
The complaints include chronic, intermittent urinary incontinence and urinary urgency.
The patient is treated with a total daily dose of medicine, which includes an admixture of 25 mg of imipramine hydrochloride and 275 mg of stool softener (docusate sodium).

Where a name gives a salt, the structure may show the parent alone.

Take `CN(C)CCCN1c2ccccc2CCc2ccccc21` [imipramine hydrochloride, Imipramine hydrochloride]: the “reduction or elimination of urinary incontinence” value in data set [1] is reported as “reduction or elimination of urinary incontinence for a significant portion of the members of the group”. Also, the adverse side effects entry in data set [2] (75 mg/day imipramine hydrochloride (25 mg/3 times daily) and a stool softener, oral) is “tolerates a dry mouth”; in data set [2] (admixture of 25 mg/day imipramine hydrochloride and 275 mg docusate sodium, selective beta-blocker given as needed), “tachycardia”. For the same molecule, the “control of bladder functions (awake and sleeping) noted by patient” value in data set [3] (50 mg/day imipramine hydrochloride and 300 mg docusate sodium, oral, after several days) was “full control of bladder functions”; in data set [3] (50 mg/day imipramine hydrochloride and 350 mg docusate sodium, ingested separately, oral, after several days), “partial to full control of bladder functions”; in data set [3] (75 mg/day imipramine hydrochloride (25 mg/3 times daily) and a stool softener, oral, after several days) it was “partial to full control of bladder functions”; in data set [3] (admixture of 25 mg/day imipramine hydrochloride and 275 mg docusate sodium, oral, after several days) it was “partial to full control of bladder functions”.

Turning to `CN(C)CCCN1c2ccccc2CCc2ccccc21.CN(C)CCCN1c2ccccc2CCc2ccccc21.O=C(O)c1cc2ccccc2c(Cc2c(O)c(C(=O)O)cc3ccccc23)c1O` [imipramine pamoate, 5-[3-(dimethylamino)]propyl-10,11-dihydro-5H-dibenzazepine 4,4-methlyenebis-(3-hydroxy-2-napthoate)], the adverse side effects result in data set [2] (75 mg/day imipramine pamoate without stool softener, oral) is on record as “develops constipation”. Also, the “control of bladder functions noted by patient” value in data set [3] (75 mg/day imipramine pamoate without stool softener, oral, after several days) was “full control of bladder functions”. For the same molecule, in data set [3] (after about three days without treatment), the “recurrence of symptoms after stopping daily dosages” value was “bladder urgency and incontinence recur”.
